Results taken from PubChem BioAssay (NCI).
Values joined by “and” are separate entries in the source; they are usually repeats but may differ in a detail not shown here. Identical values can stand only once.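 Values below derive from 48-hour exposures of cells grown in 96-well plates, with endpoints linearly interpolated between the two concentrations bracketing the appropriate inhibition level. GI50: concentration for 50% inhibition of growth. TGI denotes the concentration required for complete inhibition of growth.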

Key:
Assay in all cases: NCI tumour cell line growth inhibition, 48 h; in the data active = GI50 below about 0.43 µM; inactive = the rest
[1] = system: MALME-3M melanoma
[2] = system: IGROV1 ovarian
[3] = system: MDA-MB-231 breast
[4] = system: KM12 colon
[5] = system: HOP-92 NSCLC
[6] = system: SF-295 CNS
[7] = system: U251 CNS
[8] = system: OVCAR-4 ovarian
[9] = system: LOX IMVI melanoma
[10] = system: SR leukemia
[11] = system: HCC-2998 colon
[12] = system: NCI-H23 lung
[13] = system: SN12C renal
[14] = system: UO-31 renal
[15] = system: ACHN renal
[16] = system: COLO 205 colon
[17] = system: T-47D breast
[18] = system: 786-0 renal
[19] = system: SK-OV-3 ovarian
[20] = system: CCRF-CEM leukemia
[21] = system: MOLT-4 leukemia
[22] = system: SK-MEL-28 melanoma
[23] = system: NCI-H460 lung
[24] = system: K-562 leukemia
[25] = system: NCI/ADR-RES ovarian
[26] = system: HCT-15 colon
[27] = system: A549 NSCLC
[28] = system: NCI-H522 lung
[29] = system: NCI-H226 lung
[30] = system: M14 melanoma
[31] = system: TK-10 renal
[32] = system: UACC-62 melanoma
[33] = system: HCT-116 colon
[34] = system: OVCAR-8 ovarian
[35] = system: RXF 393 renal
[36] = system: HS 578T breast
[37] = system: SNB-75 CNS
[38] = system: CAKI-1 renal
[39] = system: SK-MEL-5 melanoma
[40] = system: HT29 colon
[41] = system: HL-60(TB) leukemia
[42] = system: BT-549 breast
[43] = system: OVCAR-3 ovarian
[44] = system: OVCAR-5 ovarian
[45] = system: SF-539 CNS
[46] = system: PC-3 prostate
[47] = system: MDA-MB-435
[48] = system: SNB-19 CNS
[49] = system: HOP-62 NSCLC
[50] = system: UACC-257 melanoma
[51] = system: DU-145 prostate
[52] = system: SK-MEL-2 melanoma
[53] = system: EKVX NSCLC
[54] = system: A498 renal
[55] = system: MCF7 breast
[56] = system: RPMI-8226 leukemia
[57] = system: SW-620 colon
[58] = system: SF-268 CNS

CCC[C@H](N[C@H]1CCc2cc(F)cc(F)c2C1)C(=O)Nc1cn(C(C)(C)CNCC(C)(C)C)cn1
52.9 µM and 54.8 µM: TGI [22]
inactive: GI50 [1] 11 µM and 12.9 µM | GI50 [2] 42.6 µM and 31.5 µM | GI50 [3] 15.3 µM and 12.9 µM | GI50 [4] 26.9 µM and 27 µM | GI50 [5] 5.6 µM and 2.52 µM | GI50 [6] 23.6 µM and 18.5 µM | GI50 [7] 17.6 µM and 19.3 µM | GI50 [8] 23.6 µM and 16.1 µM | GI50 [9] 15.5 µM and 16.1 µM | GI50 [10] 19.3 µM and 14 µM | GI50 [11] 22.3 µM and 24.9 µM | GI50 [12] 24.1 µM and 22.4 µM | GI50 [13] 28.6 µM and 17.5 µM | GI50 [14] 5.72 µM and 4.1 µM | GI50 [15] 26.3 µM and 23.2 µM | GI50 [16] 14 µM and 14.4 µM | GI50 [17] 9.83 µM and 14.2 µM | GI50 [18] 14.2 µM and 32.5 µM | GI50 [19] 37.2 µM and 40.3 µM | GI50 [20] 24.5 µM and 20.7 µM | GI50 [21] 6.93 µM and 7.84 µM | GI50 [22] 19 µM and 18 µM | GI50 [23] 25.3 µM and 21.6 µM | GI50 [24] 5.6 µM and 12.1 µM | GI50 [25] 17.2 µM and 20.6 µM | GI50 [26] 20.1 µM and 16.3 µM | GI50 [27] 23.1 µM and 21.5 µM | GI50 [28] 23.9 µM and 13.4 µM | GI50 [29] 26.5 µM and 14.1 µM | GI50 [30] 13.8 µM and 14.8 µM | GI50 [31] 25.1 µM and 28.9 µM | GI50 [32] 16.8 µM | GI50 [33] 7.27 µM and 10.9 µM | GI50 [34] 31.7 µM and 26 µM | GI50 [36] 16.3 µM and 13.1 µM | GI50 [37] 18.2 µM and 13.8 µM | GI50 [38] 7.69 µM and 4.75 µM | GI50 [39] 15.2 µM and 13 µM | GI50 [40] 10.4 µM and 11.9 µM | GI50 [41] 13.9 µM and 22.4 µM | GI50 [42] 14.9 µM and 21 µM | GI50 [43] 19.9 µM and 16.6 µM | GI50 [44] 27 µM and 22.6 µM | GI50 [45] 19 µM and 27.8 µM | GI50 [46] 10.9 µM and 12.4 µM | GI50 [47] 21.3 µM and 21.5 µM | GI50 [48] 35.2 µM and 29.7 µM | GI50 [49] 33.3 µM and 53.3 µM | GI50 [50] 13.7 µM and 12.9 µM | GI50 [51] 34.8 µM and 35.9 µM | GI50 [52] 16.8 µM and 15.1 µM | GI50 [53] 24.2 µM and 21.3 µM | GI50 [54] 3.85 µM and 19.2 µM | GI50 [55] 16.3 µM and 11.7 µM | GI50 [56] 9.57 µM and 11 µM | GI50 [57] 23.7 µM and 23.3 µM | GI50 [58] 21.8 µM and 16.5 µM
61.9 µM and 40.4 µM: TGI [50]
23.3 µM and 28.6 µM: TGI [33]
> 100 µM and 91.1 µM: TGI [10]
> 48.1 µM and 87.8 µM: TGI [54]
72.2 µM and 86.2 µM: TGI [42]
34.3 µM and 35.9 µM: TGI [9]
30 µM and 27.7 µM: TGI [14]
29.5 µM and 28.8 µM: TGI [40]
45.3 µM and 41.2 µM: TGI [3]
49.8 µM and > 100 µM: TGI [18]
40.1 µM and 27.2 µM: TGI [5]
28.5 µM and 29.5 µM: TGI [1]
41.2 µM and 46.6 µM: TGI [30]
> 100 µM and 77.6 µM: TGI [43]
> 64.4 µM and 83.7 µM: TGI [55]
> 100 µM: TGI [2] | TGI [4] | TGI [6] | TGI [7] | TGI [8] | TGI [11] | TGI [12] | TGI [13] | TGI [15] | TGI [17] | TGI [19] | TGI [20] | TGI [21] | TGI [23] | TGI [24] | TGI [25] | TGI [26] | TGI [27] | TGI [31] | TGI [34] | TGI [37] | TGI [44] | TGI [46] | TGI [47] | TGI [48] | TGI [49] | TGI [51] | TGI [53] | TGI [57] | TGI [58]
43.3 µM and > 100 µM: TGI [41]
29.6 µM and 26.2 µM: TGI [39]
> 100 µM and 92.9 µM: TGI [29]
28.6 µM and 29.1 µM: TGI [16]
45.8 µM: TGI [32]
47.3 µM and > 100 µM: TGI [45]
39.9 µM and 13.4 µM: TGI [35]
42 µM and 37.2 µM: TGI [52]
> 100 µM and 93.5 µM: TGI [36]
48.8 µM and 69 µM: TGI [56]
> 47.6 µM and 42.9 µM: TGI [38]
> 100 µM and 69.6 µM: TGI [28]

COc1cc(NC(=O)c2ccc(C(F)(F)F)nc2Nc2cc(Cl)ccc2C)cc(OC)c1OC
12.3 µM: TGI [39]
14.3 µM: TGI [3]
21.6 µM: TGI [57]
1.57 µM: TGI [10]
22 µM: TGI [4] | TGI [20]
20 µM: TGI [9]
27 µM: TGI [22]
34.1 µM: TGI [43]
35.6 µM: TGI [44]
15 µM: TGI [11]
12.2 µM: TGI [46]
27.4 µM: TGI [55]
16 µM: TGI [14]
34.2 µM: TGI [47]
0.823 µM: TGI [21]
19.4 µM: TGI [36]
20.6 µM: TGI [16]
14.1 µM: TGI [33]
34 µM: TGI [15]
47.7 µM: TGI [1]
16.6 µM: TGI [49]
27.8 µM: TGI [12] | TGI [58]
39.6 µM: TGI [51]
29.6 µM: TGI [19]
24.2 µM: TGI [13]
25.9 µM: TGI [24]
21.3 µM: TGI [23]
37.6 µM: TGI [53]
48.3 µM: TGI [25]
20.2 µM: TGI [2]
active: GI50 [10] 0.215 µM | GI50 [41] 0.194 µM
19.7 µM: TGI [50]
27.1 µM: TGI [17]
16.9 µM: TGI [7]
50.8 µM: TGI [45]
27.9 µM: TGI [35]
19 µM: TGI [26]
21.4 µM: TGI [18] | TGI [42]
> 67.9 µM: TGI [31]
43.5 µM: TGI [8]
32.8 µM: TGI [29]
18.2 µM: TGI [28] | TGI [54]
inactive: GI50 [1] 9.84 µM | GI50 [2] 0.852 µM | GI50 [3] 2.94 µM | GI50 [4] 4.51 µM | GI50 [5] 0.801 µM | GI50 [6] 5.66 µM | GI50 [7] 4.27 µM | GI50 [8] 3.16 µM | GI50 [9] 7.06 µM | GI50 [11] 0.985 µM | GI50 [12] 3.06 µM | GI50 [13] 7.76 µM | GI50 [14] 3.48 µM | GI50 [15] 5.13 µM | GI50 [16] 7 µM | GI50 [17] 3.99 µM | GI50 [18] 4.72 µM | GI50 [19] 7.69 µM | GI50 [20] 0.452 µM | GI50 [22] 8.74 µM | GI50 [23] 6 µM | GI50 [24] 1.77 µM | GI50 [25] 5.91 µM | GI50 [26] 4.35 µM | GI50 [27] 6 µM | GI50 [28] 2.93 µM | GI50 [29] 11.2 µM | GI50 [30] 4.64 µM | GI50 [31] 15.8 µM | GI50 [32] 2.53 µM | GI50 [33] 2.93 µM | GI50 [34] 10.8 µM | GI50 [35] 6.52 µM | GI50 [36] 3.9 µM | GI50 [37] 3.07 µM | GI50 [38] 4.88 µM | GI50 [39] 1.75 µM | GI50 [40] 8.12 µM | GI50 [42] 6.56 µM | GI50 [43] 6.47 µM | GI50 [44] 12.3 µM | GI50 [45] 9.89 µM | GI50 [46] 1.89 µM | GI50 [47] 4.94 µM | GI50 [48] 10.4 µM | GI50 [49] 5.1 µM | GI50 [50] 4.55 µM | GI50 [51] 12.6 µM | GI50 [52] 8.16 µM | GI50 [53] 4.54 µM | GI50 [54] 4.14 µM | GI50 [55] 3.78 µM | GI50 [56] 1.18 µM | GI50 [57] 6.49 µM | GI50 [58] 6.63 µM
11 µM: TGI [5]
20.8 µM: TGI [30]
41.8 µM: TGI [38]
45.7 µM: TGI [27]
16.3 µM: TGI [56]
28.6 µM: TGI [52]
17 µM: TGI [32]
> 80.1 µM: TGI [34]
30.5 µM: TGI [48]
24.4 µM: TGI [6] | TGI [37]
22.9 µM: TGI [40]
7.8 µM: TGI [41]

CCOC(=O)c1c(-c2ccccc2)oc(=O)c(Cc2cccc3cccnc23)c1-c1ccccc1
> 10 µM: TGI [1] | TGI [2] | TGI [3] | TGI [4] | TGI [5] | TGI [6] | TGI [7] | TGI [8] | TGI [9] | TGI [10] | TGI [11] | TGI [12] | TGI [13] | TGI [14] | TGI [15] | TGI [16] | TGI [17] | TGI [18] | TGI [19] | TGI [20] | TGI [21] | TGI [22] | TGI [23] | TGI [24] | TGI [25] | TGI [26] | TGI [27] | TGI [28] | TGI [29] | TGI [30] | TGI [31] | TGI [32] | TGI [33] | TGI [34] | TGI [35] | TGI [36] | TGI [37] | TGI [38] | TGI [39] | TGI [40] | TGI [41] | TGI [42] | TGI [43] | TGI [44] | TGI [45] | TGI [46] | TGI [47] | TGI [48] | TGI [49] | TGI [50] | TGI [51] | TGI [52] | TGI [53] | TGI [54] | TGI [55] | TGI [56] | TGI [57] | TGI [58]
